According to ChEMBL document CHEMBL3272239, “Psychotropic agents. 3. 4-(4-Substituted piperidinyl)-1-(4-fluorophenyl)-1-butanones with potent neuroleptic activity” (J Med Chem, 1978):

What was measured:
Mus musculus [1] = test: Neuroleptic activity in po dosed STD-ddY mouse assessed as protection against methamphetamine-induced toxicity administered 1 hr before methamphetamine challenge measured after 24 hrs; assay type: functional
Mus musculus [2] = test: Neuroleptic activity in po dosed STD-ddY mouse assessed as inhibition of spontaneous motor activity by measuring number of revolution of cage for 5 mins; assay type: functional
Rattus norvegicus [3] = test: Ratio of ED50 for po dosed albino Wistar rat assessed as induction of catalepsy to ED50 for methamphetamine-induced stereotyped behavior in po dosed albino Wistar rat
Rattus norvegicus [4] = test: Toxicity in po dosed albino Wistar rat assessed as induction of catalepsy after 8 hrs; assay type: organism-based; conditions: in vivo
Rattus norvegicus [5] = test: Ratio of ED50 for po dosed albino Wistar rat assessed as induction of catalepsy to ED50 for apomorphine-induced stereotyped behavior in po dosed albino Wistar rat
[6] = Acute toxicity in po dosed STD-ddY mouse assessed as mortality up to 7 days; assay type: organism-based; conditions: in vivo
Rattus norvegicus [7] = test: Inhibition of apomorphine-induced stereotyped behavior in po dosed albino Wistar rat administered 2 hrs before apomorphine challenge measured after 20 mins; assay type: functional
Rattus norvegicus [8] = test: Inhibition of methamphetamine-induced stereotyped behavior in po dosed albino Wistar rat administered 2 hrs before methamphetamine challenge measured up to 3 hrs; assay type: functional
Rattus norvegicus [9] = test: Ratio of haloperidol ED50 to compound ED50 for apomorphine-induced stereotyped behavior in po dosed albino Wistar rat; assay type: functional
Rattus norvegicus [10] = test: Ratio of benperidol ED50 to compound ED50 for methamphetamine-induced stereotyped behavior in po dosed albino Wistar rat; assay type: functional
Rattus norvegicus [11] = test: Ratio of benperidol ED50 to compound ED50 for apomorphine-induced stereotyped behavior in po dosed albino Wistar rat; assay type: functional
Rattus norvegicus [12] = test: Ratio of haloperidol ED50 to compound ED50 for methamphetamine-induced stereotyped behavior in po dosed albino Wistar rat; assay type: functional

SMILES	ED50 (Mus musculus [1])	ED50 (Mus musculus [2])	also measured
O=C(CCCN1CCC(n2cnc3ccccc32)CC1)c1ccc(F)cc1	> 3 mg/kg	4.7 mg/kg	–
Cc1nc2ccccc2n1C1CCN(CCCC(=O)c2ccc(F)cc2)CC1	0.81 mg/kg	0.85 mg/kg	–
CCc1nc2ccccc2n1C1CCN(CCCC(=O)c2ccc(F)cc2)CC1.Cl	> 3 mg/kg	9.1 mg/kg	–
CCCCc1nc2ccccc2n1C1CCN(CCCC(=O)c2ccc(F)cc2)CC1.Cl	> 3 mg/kg	14 mg/kg	–
Cl.O=C(CCCN1CCC(n2c(-c3ccccc3)nc3ccccc32)CC1)c1ccc(F)cc1	> 3 mg/kg	18 mg/kg	–
O=C(CCCN1CCC(n2c(C(F)(F)F)nc3ccccc32)CC1)c1ccc(F)cc1	–	> 40 mg/kg	–
CSc1nc2ccccc2n1C1CCN(CCCC(=O)c2ccc(F)cc2)CC1	0.68 mg/kg	6.2 mg/kg	Ratio ED50 (Rattus norvegicus [3]): 5.5; ED50 (Rattus norvegicus [4]): 1.1 mg/kg; Ratio ED50 (Rattus norvegicus [5]): 2.7; LD50 at 168 h [6]: 930 mg/kg; ED50 (Rattus norvegicus [7]): 0.41 mg/kg; ED50 (Rattus norvegicus [8]): 0.2 mg/kg
CCSc1nc2ccccc2n1C1CCN(CCCC(=O)c2ccc(F)cc2)CC1.Cl	> 3 mg/kg	5 mg/kg	–
Br.CC(C)Sc1nc2ccccc2n1C1CCN(CCCC(=O)c2ccc(F)cc2)CC1	1.6 mg/kg	4.4 mg/kg	–
O=C(CCCN1CCC(n2c(SCCO)nc3ccccc32)CC1)c1ccc(F)cc1	> 3 mg/kg	6.9 mg/kg	–
O=C(CCCSc1nc2ccccc2n1C1CCN(CCCC(=O)c2ccc(F)cc2)CC1)c1ccc(F)cc1	> 3 mg/kg	14 mg/kg	–
O=C(CCCN1CCC(n2c(SCC(=O)c3ccc(Cl)cc3)nc3ccccc32)CC1)c1ccc(F)cc1	1.6 mg/kg	5 mg/kg	–
O=C(CCCN1CCC(n2c(SCc3ccccc3)nc3ccccc32)CC1)c1ccc(F)cc1	0.76 mg/kg	1.3 mg/kg	–
C#CCSc1nc2ccccc2n1C1CCN(CCCC(=O)c2ccc(F)cc2)CC1.Cl	0.74 mg/kg	1.2 mg/kg	–
Br.CCOC(=O)CSc1nc2ccccc2n1C1CCN(CCCC(=O)c2ccc(F)cc2)CC1	–	> 40 mg/kg	–
O=C(CCCN1CCC(n2c(Sc3ccccc3[N+](=O)[O-])nc3ccccc32)CC1)c1ccc(F)cc1	–	11 mg/kg	–

SMILES	ED50 (Mus musculus [1])	ED50 (Mus musculus [2])	also measured
CCOC(=O)Sc1nc2ccccc2n1C1CCN(CCCC(=O)c2ccc(F)cc2)CC1	0.65 mg/kg	0.36 mg/kg	–
CCCCCCC(=O)Sc1nc2ccccc2n1C1CCN(CCCC(=O)c2ccc(F)cc2)CC1.Cl	1.1 mg/kg	1 mg/kg	–
Cl.O=C(CCCN1CCC(n2c(SC(=O)c3ccc(Cl)cc3)nc3ccccc32)CC1)c1ccc(F)cc1	0.83 mg/kg	0.96 mg/kg	–
Cl.Cn1c(=S)n(C2CCN(CCCC(=O)c3ccc(F)cc3)CC2)c2ccccc21	–	0.54 mg/kg	–
Br.C=CCn1c(=S)n(C2CCN(CCCC(=O)c3ccc(F)cc3)CC2)c2ccccc21	–	0.87 mg/kg	–
O=C(CCCN1CCC(n2nnc3ccccc32)CC1)c1ccc(F)cc1	–	33 mg/kg	–
Cc1nc2ccccc2n(C2CCN(CCCC(=O)c3ccc(F)cc3)CC2)c1=O	> 3 mg/kg	14.1 mg/kg	–
CC(=O)O.O=C(CCCN1CCC(n2c(=O)c(O)nc3ccccc32)CC1)c1ccc(F)cc1	> 3 mg/kg	> 40 mg/kg	–
Cc1nc2ccccc2n1C1CCN(CCCC(c2ccc(F)cc2)c2ccc(F)cc2)CC1	> 3 mg/kg	40 mg/kg	–
Fc1ccc(C(CCCN2CCC(n3c(=S)[nH]c4ccccc43)CC2)c2ccc(F)cc2)cc1	1 mg/kg	20 mg/kg	–
CSc1nc2ccccc2n1C1CCN(CCCC(c2ccc(F)cc2)c2ccc(F)cc2)CC1	2.4 mg/kg	13 mg/kg	–
OCCSc1nc2ccccc2n1C1CCN(CCCC(c2ccc(F)cc2)c2ccc(F)cc2)CC1	> 3 mg/kg	40 mg/kg	–
O=C(CCCN1CCC(n2c(O)nc3ccccc32)CC1)c1ccc(F)cc1 [BENPERIDOL]	0.63 mg/kg	0.56 mg/kg	Ratio ED50 (Rattus norvegicus [3]): 2.1; ED50 (Rattus norvegicus [4]): 0.92 mg/kg; Ratio ED50 (Rattus norvegicus [5]): 1.5; ED50 (Rattus norvegicus [7]): 0.62 mg/kg; ED50 (Rattus norvegicus [8]): 0.44 mg/kg
O=C(CCCN1CCC(O)(c2ccc(Cl)cc2)CC1)c1ccc(F)cc1 [HALOPERIDOL]	0.32 mg/kg	0.8 mg/kg	Ratio ED50 (Rattus norvegicus [3]): 1.8; ED50 (Rattus norvegicus [4]): 0.88 mg/kg; Ratio ED50 (Rattus norvegicus [5]): 1; LD50 at 168 h [6]: 240 mg/kg; ED50 (Rattus norvegicus [7]): 0.85 mg/kg; ED50 (Rattus norvegicus [8]): 0.5 mg/kg
O=c1[nH]c2ccccc2n1C1CCN(CCCC(c2ccc(F)cc2)c2ccc(F)cc2)CC1 [PIMOZIDE]	1.1 mg/kg	7.4 mg/kg	–
O=C(CCCN1CCC(n2c(=S)[nH]c3ccccc32)CC1)c1ccc(F)cc1 [TIMIPERONE]	0.55 mg/kg	0.6 mg/kg	Ratio ED50 (Rattus norvegicus [3]): 6.1; Ratio ED50 (Rattus norvegicus [9]): 8.9; Ratio ED50 (Rattus norvegicus [10]): 8.1; ED50 (Rattus norvegicus [4]): 0.33 mg/kg; Ratio ED50 (Rattus norvegicus [5]): 4.5; Ratio ED50 (Rattus norvegicus [11]): 6.5; LD50 at 168 h [6]: 500 mg/kg; Ratio ED50 (Rattus norvegicus [12]): 9.3; ED50 (Rattus norvegicus [7]): 0.095 mg/kg; ED50 (Rattus norvegicus [8]): 0.054 mg/kg
